Laboratory results as given in patent US5817840A, “Water soluble taxol derivatives” (The Scripps Research Institute, priority 1997, dated 1998).
Converted amounts (≈) assume the structure as drawn. Like-named read-outs stand apart in the source and are kept apart here. Each block holds one compound with its values, some of them ahead of it.

What was measured:
H322 (lung carcinoma) = test: Cytotoxicity (sulphorhodamine B), cancer cell line, Table 1B; assay type: cell-based
Description: (§1) The cytotoxicities were determined using the sulphorhodamine B assay method (Skehan, P. et al. J. Nat. Canc. Inst. 82, 1107 (1990)).

[1] = system: 786-0 (renal cell carcinoma); test: as above; assay type: cell-based; conditions: Homo sapiens
Description: as §1

[2] = system: BT-549 (breast carcinoma); test: as above; assay type: cell-based; conditions: Homo sapiens
Description: as §1

[3] = system: MOLT-4 (T-cell leukaemia); test: as above; assay type: cell-based; conditions: Homo sapiens
Description: as §1

SK (melanoma) = test: as above; assay type: cell-based
Description: as §1

HT-29 (colon carcinoma) = test: as above; assay type: cell-based; conditions: Homo sapiens
Description: as §1

L1210 (mouse leukaemia) = test: as above; assay type: cell-based
Description: as §1

[4] = system: BALB/c 3T3 (normal mouse embryo); test: Cytotoxicity (sulphorhodamine B), normal cell line, Table 1B; assay type: cell-based
Description: as §1

[5] = system: UCLA-P-3 (lung carcinoma); test: Cytotoxicity (sulphorhodamine B), cancer cell line, Table 1B; assay type: cell-based; conditions: Homo sapiens
Description: as §1

[6] = system: CHO (Chinese hamster ovary); test: Cytotoxicity (sulphorhodamine B), normal cell line, Table 1B; assay type: cell-based; conditions: Cricetulus griseus
Description: as §1

Capan-1 (pancreatic) = test: Cytotoxicity (sulphorhodamine B), cancer cell line, Table 1B; assay type: cell-based; conditions: Homo sapiens
Description: as §1

[7] = system: RPMI-7666 (normal human PBLs); test: Cytotoxicity (sulphorhodamine B), normal cell line, Table 1B; assay type: cell-based
Description: as §1

MCF-7 (breast carcinoma) = test: Cytotoxicity (sulphorhodamine B), cancer cell line, Table 1B; assay type: cell-based; conditions: Homo sapiens
Description: as §1

[8] = system: HL-60 (promyel carcinoma); test: as above; assay type: cell-based; conditions: Homo sapiens
Description: as §1

[9] = system: CHO (normal human mammary); test: Cytotoxicity (sulphorhodamine B), normal cell line, Table 1B; assay type: cell-based
NHDF (normal human skin) = test: as above; assay type: cell-based
Description: as §1

SIHA (cervix carcinoma) = test: Cytotoxicity (sulphorhodamine B), cancer cell line, Table 1B; assay type: cell-based; conditions: Homo sapiens
Description: as §1

[10] = system: PC-3 (prostate carcinoma); test: as above; assay type: cell-based; conditions: Homo sapiens
Description: as §1

physchem = conditions: d2o
Description: The solubilities of the synthesized protaxols in D2 O were determined by 1H NMR spectroscopy.
The resulting mixture was centrifuged for 20 minutes and the supernatant saturated solution was analysed by ^1 H NMR spectroscopy using a Bruker AMX-400 instrument and methanol or pyridine as internal standard. The concentration of the compound was determined by comparing several signals with the CH3 signal of methanol or the NCH signal of pyridine.

[11] = Taxol release from protaxols in aqueous buffer; assay type: physicochemical; conditions: aqueous buffer
Description: The derivatives in which the C-7 hydroxyl group was acetylated were extremely unstable in aqueous media losing the C-7 substituent very rapidly. The stability of the synthesized compounds was examined at various pH's and temperatures. […] Table 1A includes the half-lives of six of these compounds at pH 7.5 and 9. […] This illustrates the ability to fine-tune the rate of release of taxol to a desired set of conditions using simple chemical principles.
Protaxol 5 was dissolved in dimethylsulphoxide (DMSO) at 25° C. and immediately added to the appropriate phosphate buffer solution at the specified temperature. Aliquots were analysed using a Waters Maxima system HPLC instrument equipped with auto-injector (3.9×300 mm C18 column equipped with a precolumn; flow rate, 1.5 ml min^-1; eluant, gradient A-B, where A is 80% 100 mM ammonium acetate, buffer pH 6.0, and B is 100% methanol; ultraviolet detector). The per cent taxol released was determined from the relative areas of the peaks corresponding to protaxol 5 and taxol (the conversion was clean, and it was assumed that the two compounds have equal molar extinction coefficients).

[12] = system: OVCAR-3 (ovarian carcinoma); test: Cytotoxicity (sulphorhodamine B), cancer cell line, Table 1B; assay type: cell-based; conditions: Homo sapiens, OVCAR-3, 72 h
Description: as §1

[13] = pH 7.5, 37° C., read-out: t1/2 (pH 7.5), 50% taxol release
[14] = pH 9, 37° C., read-out: t1/2 (pH 9), 50% taxol release

SMILES: CC(=O)O[C@H]1C(=O)[C@]2(C)[C@@H](OC(=O)COCC(=O)O)C[C@H]3OC[C@@]3(OC(C)=O)[C@H]2[C@H](OC(=O)c2ccccc2)[C@]2(O)C[C@H](OC(=O)[C@H](OC(=O)COCC(=O)O)[C@@H](NC(=O)c3ccccc3)c3ccccc3)C(C)=C1C2(C)C [Compound 11]
IC50 (H322 (lung carcinoma); NCI-H322, H322, 72 hours, read-out: IC50): 1 nM
IC50 ([1]; 786-0, 72 hours, read-out: IC50): 1000 nM
IC50 ([2]; BT-549, 72 hours, read-out: IC50): < 1 nM
IC50 ([3]; MOLT-4, 72 hours, read-out: IC50): < 1 nM
IC50 (SK (melanoma); SK melanoma, 72 hours, read-out: IC50): 10000 nM
IC50 (HT-29 (colon carcinoma); HT-29, 72 hours, read-out: IC50): < 1 nM
IC50 (L1210 (mouse leukaemia); L1210, 72 hours, read-out: IC50): 1000 nM
IC50 ([4]; BALB/c3T3, BALB/c 3T3, 72 hours, read-out: IC50): 1000 nM
IC50 ([5]; UCLA-P-3, 72 hours, read-out: IC50): 1 nM
IC50 ([6]; CHO, Chinese hamster ovary, 72 hours, read-out: IC50): 100000 nM
IC50 (Capan-1 (pancreatic); Capan-1, 72 hours, read-out: IC50): < 1 nM
IC50 ([7]; RPMI-7666, 72 hours, read-out: IC50): 100000 nM
IC50 (MCF-7 (breast carcinoma); MCF7, CF-7 / MCF-7, 72 hours, read-out: IC50): 10000 nM
IC50 ([8]; HL-60, 72 hours, read-out: IC50): < 1 nM
IC50 ([9]; CHO, normal human mammary, 72 hours, read-out: IC50): 100000 nM
IC50 (NHDF (normal human skin); 72 hours, read-out: IC50): 1000 nM
IC50 (SIHA (cervix carcinoma); SIHA, 72 hours, read-out: IC50): 10000 nM
IC50 ([10]; PC-3, 72 hours, read-out: IC50): 1000 nM

solubility (physchem): 500 µg/mL (≈ 460 µM)
SMILES: CC(=O)O[C@H]1C(=O)[C@]2(C)[C@@H](OC(=O)COCC(=O)O)C[C@H]3OC[C@@]3(OC(C)=O)[C@H]2[C@H](OC(=O)c2ccccc2)[C@]2(O)C[C@H](OC(=O)[C@H](OC(=O)COCC(=O)O)[C@@H](NC(=O)c3ccccc3)c3ccccc3)C(C)=C1C2(C)C [drawing 13]

SMILES: CC(=O)O[C@H]1C(=O)[C@@]2(C)[C@H]([C@H](OC(=O)c3ccccc3)[C@]3(O)C[C@H](OC(=O)[C@H](OC(=O)OCCS(=O)(=O)c4ccccc4)[C@@H](NC(=O)c4ccccc4)c4ccccc4)C(C)=C1C3(C)C)[C@]1(OC(C)=O)CO[C@@H]1C[C@@H]2O
half-life [11, 13]: > 8.33 h
half-life [11, 14]: 1.1 h

SMILES: CC(=O)O[C@H]1C(=O)[C@@]2(C)[C@H]([C@H](OC(=O)c3ccccc3)[C@]3(O)C[C@H](OC(=O)[C@H](OC(=O)OCCS(=O)(=O)c4ccc(N)cc4)[C@@H](NC(=O)c4ccccc4)c4ccccc4)C(C)=C1C3(C)C)[C@]1(OC(C)=O)CO[C@@H]1C[C@@H]2O [drawing 12]
half-life [11, 13]: > 8.33 h
half-life [11, 14]: 1.68 h

SMILES: CC(=O)O[C@H]1C(=O)[C@@]2(C)[C@H]([C@H](OC(=O)c3ccccc3)[C@]3(O)C[C@H](OC(=O)[C@H](OC(=O)CSCC(=O)O)[C@@H](NC(=O)c4ccccc4)c4ccccc4)C(C)=C1C3(C)C)[C@]1(OC(C)=O)CO[C@@H]1C[C@@H]2O [drawing 6]
solubility (physchem): 350 µg/mL (≈ 355 µM)
half-life [11, 13]: > 8.33 h
half-life [11, 14]: 5 h

SMILES: CC(=O)O[C@H]1C(=O)[C@@]2(C)[C@H]([C@H](OC(=O)c3ccccc3)[C@]3(O)C[C@H](OC(=O)[C@H](OC(=O)OCCS(=O)(=O)c4ccc(N)cc4)[C@@H](NC(=O)c4ccccc4)c4ccccc4)C(C)=C1C3(C)C)[C@]1(OC(C)=O)CO[C@@H]1C[C@@H]2O [Compound 10]
IC50 [12]: < 1 nM
IC50 (H322 (lung carcinoma); NCI-H322, 72 h): 10 nM
IC50 ([1]; 786-0, 72 h): 1000 nM
IC50 ([2]; BT-549, 72 h): 100 nM
IC50 ([3]; MOLT-4, 72 h): < 1 nM
IC50 (SK (melanoma); 72 h): 10000 nM
IC50 (HT-29 (colon carcinoma); HT-29, 72 h): < 1 nM
IC50 (L1210 (mouse leukaemia); L1210, 72 h): 10000 nM
IC50 ([4]; BALB/c3T3, 72 h): 10000 nM
IC50 ([5]; UCLA P-3, 72 h): < 1 nM
IC50 ([6]; 72 h): 100000 nM
IC50 (Capan-1 (pancreatic); CAPAN-1, 72 h): < 1 nM
IC50 ([7]; 72 h): 100000 nM
IC50 (MCF-7 (breast carcinoma); MCF7, 72 h): 10000 nM
IC50 ([8]; HL-60, 72 h): < 1 nM
IC50 ([9]; Homo sapiens, 72 h): 100000 nM
IC50 (NHDF (normal human skin); 72 h): 1000 nM
IC50 (SIHA (cervix carcinoma); SiHa, 72 h): 10000 nM
IC50 ([10]; 72 h): 1000 nM
